Source: US8791123B2, “Substituted pyrazolo[1,5-a]pyrimidine compounds as Trk kinase inhibitors” (Array Biopharma, Inc., priority 2009, dated 2014)

Legend:
[1] = target: TrkA (histidine-tagged recombinant human TrkA, cytoplasmic domain) (Homo sapiens (Human), UniProt P04629); assay: TrkA ELISA Assay; type: biochemical; conditions: Table 1; ELISA, 500 μM ATP; read-out: TrkA Enzyme IC50
Procedure, shortened: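 His-tagged human TrkA cytoplasmic domain phosphorylated poly(Glu,Ala,Tyr 6:3:1) coated at 0.025 mg/mL, with inhibitors present. Phosphotyrosine was detected with HRP-conjugated PY20 antibody (0.2 μg/mL) and TMB, read as absorbance at 450 nm after phosphoric acid stop.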

Human Jak2 kinase domain = Human Jak2 kinase domain (Homo sapiens (Human), UniProt O60674); assay: Jak2 Inhibition Assay (Omnia kinase assay); type: biochemical; conditions: Table 1; 500 μM ATP; >1000 nM when >50% inhibition not observed at 1000 nM; read-out: Jak2 Enzyme IC50
Human Jak2 kinase domain, sequence (O60674 808-1132): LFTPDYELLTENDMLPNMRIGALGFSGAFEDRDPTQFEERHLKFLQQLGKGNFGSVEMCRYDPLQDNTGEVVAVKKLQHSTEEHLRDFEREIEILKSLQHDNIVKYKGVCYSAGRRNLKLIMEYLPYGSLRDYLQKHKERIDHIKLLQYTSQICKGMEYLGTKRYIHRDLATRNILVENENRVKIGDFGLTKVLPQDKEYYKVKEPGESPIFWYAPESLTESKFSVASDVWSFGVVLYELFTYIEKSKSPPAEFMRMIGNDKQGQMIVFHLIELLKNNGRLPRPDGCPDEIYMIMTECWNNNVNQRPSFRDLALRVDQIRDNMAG

TrkA (histidine-tagged recombinant human TrkA, cytoplasmic domain), sequence (P04629 440-796): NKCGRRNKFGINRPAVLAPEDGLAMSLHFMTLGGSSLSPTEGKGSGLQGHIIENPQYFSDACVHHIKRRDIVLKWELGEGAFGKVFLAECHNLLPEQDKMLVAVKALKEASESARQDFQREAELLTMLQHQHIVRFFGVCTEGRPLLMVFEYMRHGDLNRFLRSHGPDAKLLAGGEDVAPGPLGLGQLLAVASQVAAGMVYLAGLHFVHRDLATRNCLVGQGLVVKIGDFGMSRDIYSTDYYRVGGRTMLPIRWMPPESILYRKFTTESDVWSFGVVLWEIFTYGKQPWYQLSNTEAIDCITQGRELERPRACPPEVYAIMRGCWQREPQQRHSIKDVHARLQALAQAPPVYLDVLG

Row | IC50 [1] | IC50 (Human Jak2 kinase domain) | Compound
1 | 2.5 nM | > 1000 nM | COCCNC(=O)c1cnn2ccc(N3CCC[C@@H]3c3cc(F)ccc3F)nc12 [Example 172, 5-((R)-2-(2,5-difluorophenyl)pyrrolidin-1-yl)-N-(2-methoxyethyl)pyrazolo[1,5-a]pyrimidine-3-carboxamide]
2 | 16.3 nM | > 1000 nM | C[C@@H](O)[C@H](CO)NC(=O)c1cnn2ccc(N3CCC[C@@H]3c3cc(F)ccc3F)nc12 [Example 174, 5-((R)-2-(2,5-difluorophenyl)pyrrolidin-1-yl)-N-((2S,3R)-1,3-dihydroxybutan-2-yl)pyrazolo[1,5-a]pyrimidine-3-carboxamide]
3 | 12.2 nM | > 1000 nM | C[C@H](O)[C@H](CO)NC(=O)c1cnn2ccc(N3CCC[C@@H]3c3cc(F)ccc3F)nc12 [Example 175, 5-((R)-2-(2,5-difluorophenyl)pyrrolidin-1-yl)-N-((2S,3S)-1,3-dihydroxybutan-2-yl)pyrazolo[1,5-a]pyrimidine-3-carboxamide]
4 | 27.2 nM | > 1000 nM | C[C@H](O)[C@@H](CO)NC(=O)c1cnn2ccc(N3CCC[C@@H]3c3cc(F)ccc3F)nc12 [Example 176, 5-((R)-2-(2,5-difluorophenyl)pyrrolidin-1-yl)-N-((2R,3S)-1,3-dihydroxybutan-2-yl)pyrazolo[1,5-a]pyrimidine-3-carboxamide]
5 | 1.8 nM | > 1000 nM | C[C@@H](CO)NC(=O)c1cnn2ccc(N3CCC[C@@H]3c3cc(F)ccc3F)nc12 [Example 177, 5-((R)-2-(2,5-difluorophenyl)pyrrolidin-1-yl)-N-((S)-1-hydroxypropan-2-yl)pyrazolo[1,5-a]pyrimidine-3-carboxamide]
6 | 2.5 nM | > 1000 nM | CC[C@@H](CO)NC(=O)c1cnn2ccc(N3CCC[C@@H]3c3cc(F)ccc3F)nc12 [Example 178, 5-((R)-2-(2,5-difluorophenyl)pyrrolidin-1-yl)-N-((S)-1-hydroxybutan-2-yl)pyrazolo[1,5-a]pyrimidine-3-carboxamide]
7 | 8.5 nM | > 1000 nM | CC(C)[C@@H](CO)NC(=O)c1cnn2ccc(N3CCC[C@@H]3c3cc(F)ccc3F)nc12 [Example 179, 5-((R)-2-(2,5-difluorophenyl)pyrrolidin-1-yl)-N-((S)-1-hydroxy-3-methylbutan-2-yl)pyrazolo[1,5-a]pyrimidine-3-carboxamide]
8 | 12.3 nM | > 1000 nM | CC(C)(C)[C@@H](CO)NC(=O)c1cnn2ccc(N3CCC[C@@H]3c3cc(F)ccc3F)nc12 [Example 180, 5-((R)-2-(2,5-difluorophenyl)pyrrolidin-1-yl)-N-((S)-1-hydroxy-3,3-dimethylbutan-2-yl)pyrazolo[1,5-a]pyrimidine-3-carboxamide]
9 | 6.9 nM | > 1000 nM | Cc1ncc(F)cc1[C@H]1CCCN1c1ccn2ncc(C(=O)NC(C)(C)C)c2n1 [Example 183, (R)-N-tert-butyl-5-(2-(5-fluoro-2-methylpyridin-3-yl)pyrrolidin-1-yl)pyrazolo[1,5-a]pyrimidine-3-carboxamide]
10 | 7.4 nM | > 1000 nM | Cc1ncc(F)cc1[C@H]1CCCN1c1ccn2ncc(C(=O)NC(C)C)c2n1 [Example 184, (R)-5-(2-(5-fluoro-2-methylpyridin-3-yl)pyrrolidin-1-yl)-N-isopropylpyrazolo[1,5-a]pyrimidine-3-carboxamide]
11 | 57.1 nM | > 1000 nM | CNC(=O)c1cnn2ccc(N3CCC[C@@H]3c3cc(F)cnc3C)nc12 [Example 186, (R)-5-(2-(5-fluoro-2-methylpyridin-3-yl)pyrrolidin-1-yl)-N-methylpyrazolo[1,5-a]pyrimidine-3-carboxamide]
12 | 83 nM | > 1000 nM | Cc1ncc(F)cc1[C@H]1CCCN1c1ccn2ncc(C(=O)NCCO)c2n1 [Example 188, (R)-5-(2-(5-fluoro-2-methylpyridin-3-yl)pyrrolidin-1-yl)-N-(2-hydroxyethyl)pyrazolo[1,5-a]pyrimidine-3-carboxamide]
13 | 76.4 nM | > 1000 nM | Cc1ncc(F)cc1[C@H]1CCCN1c1ccn2ncc(C(=O)NC[C@@H](C)O)c2n1 [Example 189, (R)-5-(2-(5-fluoro-2-methylpyridin-3-yl)pyrrolidin-1-yl)-N-((R)-2-hydroxypropyl)pyrazolo[1,5-a]pyrimidine-3-carboxamide]
14 | 69.5 nM | > 1000 nM | COCCNC(=O)c1cnn2ccc(N3CCC[C@@H]3c3cc(F)cnc3C)nc12 [Example 191, (R)-5-(2-(5-fluoro-2-methylpyridin-3-yl)pyrrolidin-1-yl)-N-(2-methoxyethyl)pyrazolo[1,5-a]pyrimidine-3-carboxamide]
15 | 438 nM | > 1000 nM | Cc1ncc(F)cc1[C@H]1CCCN1c1ccn2ncc(C(=O)N3CC(O)C3)c2n1 [Example 192, (R)-(5-(2-(5-fluoro-2-methylpyridin-3-yl)pyrrolidin-1-yl)pyrazolo[1,5-a]pyrimidin-3-yl)(3-hydroxyazetidin-1-yl)methanone]
16 | 15.6 nM | > 1000 nM | Cc1ncc(F)cc1[C@H]1CCCN1c1ccn2ncc(C(=O)NC3(CO)CC3)c2n1 [Example 193, (R)-5-(2-(5-fluoro-2-methylpyridin-3-yl)pyrrolidin-1-yl)-N-(1-(hydroxymethyl)cyclopropyl)pyrazolo[1,5-a]pyrimidine-3-carboxamide]
17 | 6.8 nM | > 1000 nM | Cc1ncc(F)cc1[C@H]1CCCN1c1ccn2ncc(C(=O)N[C@H]3CC[C@H](O)C3)c2n1 [Example 196, 5-((R)-2-(5-fluoro-2-methylpyridin-3-yl)pyrrolidin-1-yl)-N-((1S,3S)-3-hydroxycyclopentyl)pyrazolo[1,5-a]pyrimidine-3-carboxamide]
18 | 4.8 nM | > 1000 nM | Cc1ncc(F)cc1[C@H]1CCCN1c1ccn2ncc(C(=O)N[C@@H]3CCC[C@H]3O)c2n1 [Example 197, 5-((R)-2-(5-fluoro-2-methylpyridin-3-yl)pyrrolidin-1-yl)-N-((1R,2R)-2-hydroxycyclopentyl)pyrazolo[1,5-a]pyrimidine-3-carboxamide]
19 | 12.7 nM | > 1000 nM | CCc1ncc(F)cc1[C@H]1CCCN1c1ccn2ncc(C(=O)N[C@H]3CC[C@H](O)C3)c2n1 [Example 200, 5-((R)-2-(2-ethyl-5-fluoropyridin-3-yl)pyrrolidin-1-yl)-N-((1S,3S)-3-hydroxycyclopentyl)pyrazolo[1,5-a]pyrimidine-3-carboxamide]
20 | 19.3 nM | > 1000 nM | CC(C)(C)NC(=O)c1cnn2ccc(N3CCC[C@@H]3c3cc(F)c[nH]c3=O)nc12 [Example 202, (R)—N-tert-butyl-5-(2-(5-fluoro-2-oxo-1,2-dihydropyridin-3-yl)pyrrolidin-1-yl)pyrazolo[1,5-a]pyrimidine-3-carboxamide]
21 | 16.6 nM | > 1000 nM | CC1(C)OCC(COc2ccc(F)cc2[C@H]2CCCN2c2ccn3ncc(C(=O)NC4CC4)c3n2)O1 (stereo partly drawn) [Example 204, N-cyclopropyl-5-((2R)-2-(2-((2,2-dimethyl-1,3-dioxolan-4-yl)methoxy)-5-fluorophenyl)pyrrolidin-1-yl)pyrazolo[1,5-a]pyrimidine-3-carboxamide]

Row | Compound | IC50 [1] | IC50 (Human Jak2 kinase domain)
22 | Cc1ncc(F)cc1[C@H]1CCCN1c1ccn2ncc(C(=O)N[C@H]3CN4CCC3CC4)c2n1 [Example 198, 5-((R)-2-(5-fluoro-2-methylpyridin-3-yl)pyrrolidin-1-yl)-N-((R)-quinuclidin-3-yl)pyrazolo[1,5-a]pyrimidine-3-carboxamide] | 243 nM | > 1000 nM
